Test results: patent publication EP0092073A1, “Magnesium salt of chenodeoxycholic acid and ursodeoxycholic acid, the process for its preparation, and therapeutic compositions which contain it as active principle” (SCHWARZ ITALIA S.p.A., priority 1982, dated 1983)
Read-outs that look alike come from different tables or passages of the source.

How the values were obtained:
patients = experiment: Controlled study in comparison with the free acids; tolerability in patients; format: in vivo; settings: patients
Mus musculus = experiment: Acute lethality and toxicity, oral administration (gastric probe); format: in vivo; design: key to Toxic symptomatology Type: NN = no symptomatology; D = depression; settings: oral
Procedure: (§1) Unless otherwise specified, the research was carried out using: a) Mg-UCD capsules as such; b) the powdered contents of Mg-UCD capsules; CDCA (chenodeoxycholic acid) and UDCA (ursodeoxycholic acid) as pure substance which in all cases was partly dissolved and partly suspended under warm conditions (T = 30°C) in 10% gum arabic mucilage (so as to administer 10-40 ml of liquid per kg orally). In certain cases, namely in the experiments involving parenteral administration, the active principle of Mg-UCD, the chenodeoxycholic acid and ursodeoxycholic acid were dissolved in distilled water of slightly alkaline pH (5-10 ml/kg).
(§2) The generally acute lethality, toxicity and tolerability were determined by oral administration of the Mg-UCD (by gastric probe) in the Mus musculus, rat and dog. Animals of both sexes were used, none of which were pregnant. They were fasted for about 12 hours before treatment (but allowing them free access to water). The investigations were carried out using the Mg-UCD in powder form. Comparative investigations were carried out on the rat and Mus musculus using the active principle by endoperitoneal administration, and chenodeoxycholic acid and ursodeoxycholic acid by oral administration (using a gastric probe). Each dose was administered to 20 rats or Mus musculus (10 male and 10 female) and to eight dogs (4 male and 4 female). The animals were observed attentively during the 7 days following administration, and any lethality, toxic symptoms, disturbances, functional variations determinable with the eye, behaviour etc. were noted.
(§3) The LD50 was determined 7 days after administration using the probit method.

[1] = as above; format: in vivo, Mus musculus; design: key to Toxic symptomatology Type: NN = no symptomatology; D = depression; settings: in vivo, po; for mortality at 24 h / mortality at 168 h: oral; for mortality at 24 h: read-out: % mortality at following times after administration 24 h; for mortality at 168 h: read-out: % mortality at following times after administration 7 days; for LD50 at 168 h: probit method, read-out: LD50 (mg/kg with reliability limits) 7 days after treatment
Procedure: as §1, §2, §3

rat = experiment: as above; format: in vivo; design: key to Toxic symptomatology Type: NN = no symptomatology; D = depression; settings: oral
Procedure: as §1, §2, §3

hampsters [2] = experiment: Bile lipid and bile acid contents of the bile (cholesterol-enriched diet, 80 days); format: in vivo
Procedure: (§4) The investigations were carried out on hampsters (of female sex, but excluding those in a state of pregnancy) having an initial weight of 75-90 g. They were treated for 80 days with oral administration (by gastric probe) of MG-UCD (10-20 mg/kg/day), chenodeoxycholic acid (10-20 mg/kg/day) or ursodeoxycholic acid (10-20 mg/kg/day) (Tables 4 and 5). The animals were maintained for 80 consecutive days on a Nossan feed diet for rats, enriched with cholesterol (2 mg/g of food).
(§5) Each experimental group consisted of 10 units. After 80 days, the animals were narcotised with ethyl ether, and the bile was withdrawn, together with the calculi and crystals from the gall-bladder as described by Pearlman and coll. in Gastroenterology 77, 634 (1979).
The bile acid, phospholipid, cholesterol, cholic acid, chenodeoxycholic acid, ursodeoxycholic acid, DCA (deoxycholic acid) and LCA (lithocholic acid) contents were evaluated in the bile by the methods described by Pearlman and coll. (see above).

hampsters [3] = experiment: Action on the formation of cholesterol calculi in the gall-bladder (cholesterol-enriched diet, 80 days); format: in vivo; settings: female hampsters; for % animals with calculi / % animals with crystals: cholesterol-enriched diet
Procedure: as §4, §5

[4] = mouse, 2000 mg/kg, M. musculus F, 2000 mg/kg
[5] = mouse, 2000 mg/kg, M. musculus M, 2000 mg/kg
[6] = mouse, 4000 mg/kg, M. musculus F, 4000 mg/kg
[7] = mouse, 4000 mg/kg, M. musculus M, 4000 mg/kg
[8] = mouse, 8000 mg/kg, M. musculus F, 8000 mg/kg
[9] = mouse, 8000 mg/kg, M. musculus M, 8000 mg/kg
[10] = rat, 2000 mg/kg, Rat F, 2000 mg/kg
[11] = rat, 2000 mg/kg, Rat M, 2000 mg/kg
[12] = rat, 4000 mg/kg, Rat F, 4000 mg/kg
[13] = rat, 4000 mg/kg, Rat M, 4000 mg/kg
[14] = rat, 8000 mg/kg, Rat F, 8000 mg/kg
[15] = rat, 8000 mg/kg, Rat M, 8000 mg/kg

SMILES: C[C@H](CCC(=O)O)[C@H]1CC[C@H]2[C@@H]3[C@@H](O)C[C@@H]4C[C@H](O)CC[C@]4(C)[C@H]3CC[C@]12C [Ursodeoxycholic acid, 17β-(1-methyl-3-carboxypropyl)-ethiocholane-3α,7β-diol]
- side effects (patients): tends to cause constipation
- Toxic symptomatology Latency (Mus musculus; M. musculus F, 2000 mg/kg): 5-10 min
- Toxic symptomatology Type (Mus musculus; M. musculus F, 2000 mg/kg): D
- Toxic symptomatology Latency (Mus musculus; M. musculus F, 4000 mg/kg): 5-10 min
- Toxic symptomatology Type (Mus musculus; M. musculus F, 4000 mg/kg): D
- Toxic symptomatology Latency (Mus musculus; M. musculus F, 8000 mg/kg): 5-10 min
- Toxic symptomatology Type (Mus musculus; M. musculus F, 8000 mg/kg): D
- Toxic symptomatology Latency (Mus musculus; M. musculus M, 2000 mg/kg): 5-10 min
- Toxic symptomatology Type (Mus musculus; M. musculus M, 2000 mg/kg): D
- Toxic symptomatology Latency (Mus musculus; M. musculus M, 4000 mg/kg): 5-10 min
- Toxic symptomatology Type (Mus musculus; M. musculus M, 4000 mg/kg): D
- Toxic symptomatology Latency (Mus musculus; M. musculus M, 8000 mg/kg): 5-10 min
- Toxic symptomatology Type (Mus musculus; M. musculus M, 8000 mg/kg): D
- mortality at 24 h [1, 4]: 0%
- mortality at 168 h [1, 4]: 0%
- mortality at 24 h [1, 5]: 0%
- mortality at 168 h [1, 5]: 0%
- mortality at 24 h [1, 6]: 20%
- mortality at 168 h [1, 6]: 20%
- mortality at 24 h [1, 7]: 20%
- mortality at 168 h [1, 7]: 20%
- mortality at 24 h [1, 8]: 60%
- mortality at 168 h [1, 8]: 70%
- mortality at 24 h [1, 9]: 60%
- mortality at 168 h [1, 9]: 80%
- LD50 at 168 h ([1]; mouse, M. musculus F): 6140 mg/kg
- LD50 at 168 h ([1]; mouse, M. musculus M): 5630 mg/kg
- mortality at 24 h [1, 10]: 0%
- mortality at 168 h [1, 10]: 0%
- mortality at 24 h [1, 11]: 0%
- mortality at 168 h [1, 11]: 0%
- mortality at 24 h [1, 12]: 10%
- mortality at 168 h [1, 12]: 10%
- mortality at 24 h [1, 13]: 10%
- mortality at 168 h [1, 13]: 10%
- mortality at 24 h [1, 14]: 70%
- mortality at 168 h [1, 14]: 60%
- mortality at 24 h [1, 15]: 70%
- mortality at 168 h [1, 15]: 70%
- LD50 at 168 h ([1]; rat, Rat F): 7330 mg/kg
- LD50 at 168 h ([1]; rat, Rat M): 6490 mg/kg
- Toxic symptomatology Latency (rat; Rat F, 2000 mg/kg): 5-10 min
- Toxic symptomatology Type (rat; Rat F, 2000 mg/kg): D
- Toxic symptomatology Latency (rat; Rat F, 4000 mg/kg): 5-10 min
- Toxic symptomatology Type (rat; Rat F, 4000 mg/kg): D
- Toxic symptomatology Latency (rat; Rat F, 8000 mg/kg): 5-10 min
- Toxic symptomatology Type (rat; Rat F, 8000 mg/kg): D
- Toxic symptomatology Latency (rat; Rat M, 2000 mg/kg): 5-10 min
- Toxic symptomatology Type (rat; Rat M, 2000 mg/kg): D
- Toxic symptomatology Latency (rat; Rat M, 4000 mg/kg): 5-10 min
- Toxic symptomatology Type (rat; Rat M, 4000 mg/kg): D
- Toxic symptomatology Latency (rat; Rat M, 8000 mg/kg): 5-10 min
- Toxic symptomatology Type (rat; Rat M, 8000 mg/kg): D
- Bile acids (expressed as molar % ± s.e.) Cheno-deoxycholic acid (hampsters [2]; 10 mg/kg/day oral for 80 days): 12.4 ± 2.6 molar %
- Bile acids (expressed as molar % ± s.e.) Cholic acid (hampsters [2]; 10 mg/kg/day oral for 80 days): 30.2 ± 4.1 molar %
- Bile acids (expressed as molar % ± s.e.) DCA (hampsters [2]; 10 mg/kg/day oral for 80 days): 12.9 ± 0.8 molar %
- Bile acids (expressed as molar % ± s.e.) LCA (hampsters [2]; 10 mg/kg/day oral for 80 days): 2.5 ± 0.1 molar %
- Bile acids (expressed as molar % ± s.e.) Urso-deoxycholic acid (hampsters [2]; 10 mg/kg/day oral for 80 days): 36.2 ± 1.4 molar %
- Bile lipids (expressed as molar % ± s.e.) Bile acids (hampsters [2]; 10 mg/kg/day oral for 80 days): 79.7 ± 4.1 molar %
- Bile lipids (expressed as molar % ± s.e.) Cholesterol (hampsters [2]; 10 mg/kg/day oral for 80 days): 7.4 ± 0.4 molar %
- Bile lipids (expressed as molar % ± s.e.) Phospho-lipids (hampsters [2]; 10 mg/kg/day oral for 80 days): 15.5 ± 1.0 molar %
- Bile acids (expressed as molar % ± s.e.) Cheno-deoxycholic acid (hampsters [2]; 20 mg/kg/day oral for 80 days): 4.5 ± 0.9 molar %
- Bile acids (expressed as molar % ± s.e.) Cholic acid (hampsters [2]; 20 mg/kg/day oral for 80 days): 17.9 ± 2.1 molar %
- Bile acids (expressed as molar % ± s.e.) DCA (hampsters [2]; 20 mg/kg/day oral for 80 days): 10.5 ± 0.6 molar %
- Bile acids (expressed as molar % ± s.e.) LCA (hampsters [2]; 20 mg/kg/day oral for 80 days): 3.9 ± 0.2 molar %
- Bile acids (expressed as molar % ± s.e.) Urso-deoxycholic acid (hampsters [2]; 20 mg/kg/day oral for 80 days): 72.8 ± 4.7 molar %
- Bile lipids (expressed as molar % ± s.e.) Bile acids (hampsters [2]; 20 mg/kg/day oral for 80 days): 81.3 ± 4.3 molar %
- Bile lipids (expressed as molar % ± s.e.) Cholesterol (hampsters [2]; 20 mg/kg/day oral for 80 days): 5.7 ± 0.2 molar %
- Bile lipids (expressed as molar % ± s.e.) Phospho-lipids (hampsters [2]; 20 mg/kg/day oral for 80 days): 15.8 ± 1.0 molar %
- % animals with calculi (hampsters [3]; 10 mg/kg/day oral for 80 days): 40%
- % animals with crystals (hampsters [3]; 10 mg/kg/day oral for 80 days): 20%
- % animals with calculi (hampsters [3]; 20 mg/kg/day oral for 80 days): 0%
- % animals with crystals (hampsters [3]; 20 mg/kg/day oral for 80 days): 0%
- Body weight (g ± s.e.) after following days 80 (hampsters [3]; day 80, oral, 10 mg/kg/day): 141 ± 7 g
